Patent US20040138241A1, “Novel use of arylethenesulfonamide derivative” (priority 2001, published 2004)
Structures can show the parent of a compound that is named as a salt. Where two headings read alike, the source gives them in different places. Blank lines part the entries; values can stand above or below the compound they belong to.

What was measured:
[1] = tested on: prostatic urethral pressure in anesthetized dogs; format: in vivo, dog; conditions: for EC50 value of increase of PUP, reduced into molar concentration: i.a. local administration, mean±standard error
Method: After waiting for stabilization of hemodynamics following the operation, the balloon was fixed to the prostatic urethra and expanded, and a prostatic urethral pressure (PUP) was measured from a change in pressure within the balloon.
ET-1 (from 0.006 to 0.8 μg/kg i.a., molar concentration: from 0.0025 to 0.321 nmol/kg i.a.) and phenylephrine hydrochloride (from 0.06 to 8 μg/kg i.a.; molar concentration: from 0.307 to 39.3 nmol/kg i.a.) were locally administered, thereby comparing the dose-response curve of an increasing action of PUP by the drugs.
In the experiments, dogs in which a degree of increase of PUP was observed 40 cmH2O or more in the pre-contraction with phenylephrine hydrochloride (8 μg/kg i.a.) were used.

[2] = tested on: urethral pressure in anesthetized dogs; experiment: ET-1 induced increase of urethral pressure in the presence of α1 receptor blocker in anesthetized dog; format: in vivo; conditions: tamsulosin hydrochloride 10 μg/kg i.v.
Method: A urethral pressure profile (UPP) was recorded according to the same operation method as in Test Example 3 .
Thirty minutes thereafter, the same amount of tamsulosin hydrochloride (10 μg/kg i.v.) was again intravenously administered.

[3] = tested on: urethral pressure in anesthetized dogs
Excerpt: Male beagle dogs (body weight: from 8 to 13 kg) were subjected to artificial ventilation under the anesthesia with pentobarbital, a catheter was inserted into a left femoral artery for measurement of blood pressure and heart rate and a left femoral vein for administration of drug. A catheter for measurement of urethral pressure (from 8 to 10Fr, 2 holes, manufactured by Create Medic Co., Ltd.) was inserted from an external urethral meatus toward urinary bladder. An automatic syringe pump was connected with one end of the catheter, and a pressure transducer was connected with the other end thereof. […] At the same time, by drawing out the catheter from the urinary bladder into the external urethral meatus at a rate of 25 mm/min by an automatic drawing unit, the pressure was measured and recorded throughout urethra as a urethral pressure profile (UPP) as shown in FIG. 6.
In the blood pressure-response by ET-1 since the pressure increased after a transient reduction of pressure, measurement of the urethral pressure was started about 3 minutes after the administration. On the other hand, as phenylephrine hydrochloride caused an increase of pressure immediately after the administration, measurement of the urethral pressure was started immediately after the administration.
Three minutes after the administration, ET-1 (1 μg/kg) was again intravenously administered, and an action against the urethral pressure was studied similarly to the time of single administration.

[4] = tested on: isolated rabbit prostate, urethra and bladder base preparations; experiment: Concentration-response of agonists in isolated rabbit lower urinary tract preparations; format: biochemical; conditions: cumulative addition
Method: Male Japanese white rabbits (from 3 to 5 kg, available from Kitayama Labes Co., Ltd.) were provided for experiments. Prostate, urethra and bladder were isolated from the rabbit to prepare ring preparations of smooth muscle. With respect to the bladder, a dorsal region of the bladder base was used as preparation. Each of the preparations was suspended in an organ bath filled with a Krebs-Henselit solution at 37 ° C., into which was then aerated a 95% O2-5% CO2 gas. A resting tension was subjected as 1g, and a tension change was isometrically measured. Incidentally, the organ bath for preventing adsorption of ET-1 was previously subjected to silicon treatment. After elapse of an equilibrium period for 60 minutes, the preparation was contracted twice by 10 μM phenylephrine hydrochloride to be stabilized the responsibility, and a main experiment was started.
ET-1 (from 0.1 to 1,000 nM), phenylephrine hydrochloride (from 0.01 to 100 μM), S6c (from 1 to 1,000 nM), or acetylcholine (from 0.01 to 1,000 μM) was cumulatively added to the organ bath to obtain a concentration-response curve. […] The contraction response to each agonists was expressed while defining the contraction by phenylephrine hydrochloride (10 μM) as obtained immediately therebefore as 100%.

[5] = ET-1 1 μg/kg i.v., phenylephrine hydrochloride 30 μg/kg i.v.

Compound: CC[C@H](C)[C@H](NC(=O)[C@H](CC(=O)O)NC(=O)[C@H](CC(C)C)NC(=O)[C@H](Cc1cnc[nH]1)NC(=O)[C@@H]1CSSC[C@H](N)C(=O)N[C@@H](CO)C(=O)N[C@H]2CSSC[C@H](NC(=O)[C@H](CCC(=O)O)NC(=O)[C@H](CCCCN)NC(=O)[C@H](CC(=O)O)NC(=O)[C@H](CCSC)NC(=O)[C@H](CC(C)C)NC(=O)[C@H](CO)NC(=O)[C@H](CO)NC2=O)C(=O)N[C@@H](C(C)C)C(=O)N[C@@H](Cc2ccc(O)cc2)C(=O)N[C@@H](Cc2ccccc2)C(=O)N1)C(=O)N[C@H](C(=O)N[C@@H](Cc1c[nH]c2ccccc12)C(=O)O)[C@@H](C)CC [ET-1]
duration of increase response of PUP relative to phenylephrine hydrochloride ([1]; ET-1 0.4 μg/kg i.a. vs phenylephrine hydrochloride 2 μg/kg i.a., typical example): about 3 times
concentration for increasing action of prostatic urethral pressure, times lower than phenylephrine hydrochloride ([1]; anesthetized dog, i.a.): about 100 times
maximum response of PUP, of that of phenylephrine hydrochloride ([1]; anesthetized dog, i.a.): 43.9 ±5.2%
EC50 value of increase of PUP, reduced into molar concentration ([1]; anesthetized dog): 0.08 ± 0.03 nmol/kg
action on urethral pressure in the presence of tamsulosin hydrochloride ([2]; ET-1 1 μg/kg i.v.): increased the urethral pressure of the whole of lower urinary tract including prostate
action on urethral pressure (UPP) [3, 5]: remarkable increase of the pressure throughout urethra other than prostate in addition to an increase of the urethral pressure of prostate
action on mean blood pressure ([3]; dog, in vivo, iv): without substantially affecting the mean blood pressure

Compound: sarafotoxin S6c [Compound S6c]
contraction of isolated preparations (in words) [4]: not substantially observed

EC50 value of increase of PUP, reduced into molar concentration ([1]; anesthetized dog): 7.47 ± 2.82 nmol/kg
Compound: CNC[C@H](O)c1cccc(O)c1 [phenylephrine hydrochloride]
degree of increase of PUP relative to ET-1 ([1]; phenylephrine hydrochloride 2 μg/kg i.a. vs ET-1 0.4 μg/kg i.a., typical example): higher about twice
action on mean blood pressure [3, 5]: increase of mean blood pressure
action on urethral pressure (UPP) [3, 5]: remarkable increase of the urethral pressure of prostate

Compound: CCOc1ccccc1OCCN[C@H](C)Cc1ccc(OC)c(S(N)(=O)=O)c1 [tamsulosin hydrochloride]
action on prostatic urethral pressure ([2]; anesthetized dogs): reduced the prostatic urethral pressure
